Like-named read-outs stand apart in the source and are kept apart here.
Legend:
Assay type in all cases: cell-based
melanoma A375 = test: Growth inhibition of tumor cells A375; conditions: Homo sapiens, A-375
lung cancer cells H3122 = test: Growth inhibition of tumor cells H3122; conditions: Homo sapiens, NCI-H3122
liver cancer HepG2 = test: Growth inhibition of tumor cells HepG2; conditions: Homo sapiens
breast cancer MCF7 = test: Growth inhibition of tumor cells MCF7; conditions: Homo sapiens
EML4-ALK (L1196M)-BaF3 = molecular target: T1, EML4-ALK (L1196M)-BaF3 (Homo sapiens, UniProt Q9UM73, L1196M); test: Growth inhibition of EML4-ALK (L1196M) transformed BaF3 cells (MTS); conditions: 48 hours
T1 construct: expressed in transfected cells; host or cells: Ba/F3 cells; the other entry of the earlier key: EML4 (Q9HC35, Echinoderm microtubule-associated protein-like 4)
Outline: (§1)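 Ba/F3 cells (2×10^4/well) in DMEM or RPMI1640 with 10% FBS exposed to 8 compound concentrations (top 10 μM, 1/3 serial dilution, 0.1% DMSO) for 48 h at 37 °C, 5% CO2. Viability by MTS/PES, 1-4 h, OD 490 nm; triplicates. IC50 fitted from inhibition rate.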

NPM-ALK-BaF3 = molecular target: T2, NPM-ALK-BaF3 (Homo sapiens, UniProt Q9UM73); test: Growth inhibition of NPM-ALK transformed BaF3 cells (MTS); conditions: 48 hours
T2 construct: expressed in transfected cells; host or cells: Ba/F3 cells; the other entry of the earlier key: NPM1 (P06748, Nucleophosmin)
Outline: (§2)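 MTS absorbance at 490 nm, measured 1–4 h after reagent addition, reports growth after 48 h compound exposure (37 °C, 5% CO2) of 2×10^4 cells/well. Eight 1/3-step concentrations from a 10 μM top, 0.1% DMSO; triplicate inhibition relative to vehicle and blank gives IC50.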

wild type BaF3 = test: Growth inhibition of wild type BaF3 cells (broad-spectrum toxicity); conditions: Mus musculus, BaF3, 48 h, MTS
Outline: as §2

EML4-ALK-BaF3 = molecular target: T3, EML4-ALK-BaF3 (Homo sapiens, UniProt Q9UM73); test: Growth inhibition of EML4-ALK transformed BaF3 cells (MTS); conditions: for IC50: EML4-ALK-BaF3 cells, 48 hours, MTS; for targeting selectivity: ratio of IC50 between wild-type BaF3 and ALK transformed BaF3 cells
T3 construct: expressed in transfected cells; host or cells: Ba/F3 cells; the other entry of the earlier key: EML4 (Q9HC35, Echinoderm microtubule-associated protein-like 4)
Outline: as §1

lung cancer cells A549 = test: Growth inhibition of tumor cells A549; conditions: Homo sapiens
[1] = test system: DFC1076 (crizotinib resistant tumor cell lines); test: Growth inhibition of tumor cells DFC1076; conditions: ALK kinase-positive lung cancer cell line
[2] = Table 11, read-out: EML4-ALK (L1196M) (IC50 nM)
[3] = Table 12, read-out: L1196M (IC50 nM)

Row | IC50 (EML4-ALK (L1196M)-BaF3; [2]) [nM] | IC50 (NPM-ALK-BaF3; Table 11) [nM] | IC50 (EML4-ALK-BaF3; Table 11) [nM] | IC50 (EML4-ALK (L1196M)-BaF3; [3]) [nM] | IC50 (NPM-ALK-BaF3; Table 12) [nM] | IC50 (EML4-ALK-BaF3; Table 12) [nM] | SMILES | IC50 (wild type BaF3; Table 11) [nM] | IC50 (wild type BaF3; Table 12) [nM] | also measured
1 | 168 | 303 | 14.9 | – | – | – | COc1cc(N2CCC(N3CCN(C)CC3)CC2)ccc1Nc1nc(Nc2ccccc2S(=O)(=O)C(C)C)c2[nH]ccc2n1 [ID-3] | 1010 | – | IC50 (melanoma A375): 3760 nM; IC50 (lung cancer cells H3122): 61.1 nM; IC50 (liver cancer HepG2): 3440 nM; IC50 (breast cancer MCF7): 2840 nM; targeting selectivity (EML4-ALK-BaF3): good targeting selectivity; IC50 (lung cancer cells A549): 2720 nM; growth inhibition [1]: good growth inhibition
2 | – | – | – | ~3510 | ~3460 | 1510 | COc1cc(N2CCC(N3CCN(C)CC3)CC2)ccc1Nc1nc(Nc2ccccc2S(C)(=O)=O)c2c(ccn2C)n1 [IIC-2] | – | 5050 | –
3 | 1620 | ~929 | 1320 | – | – | – | COc1cc(N2CCN(C)CC2)ccc1Nc1nc(NCc2ccccc2SC)c2[nH]ccc2n1 [IL-1] | ~2820 | – | –
4 | > 10000 | > 10000 | > 10000 | – | – | – | COC(=O)c1ccccc1Nc1nc(Nc2ccc(N3CCN(C)CC3)cn2)nc2cc[nH]c12 [IG-13] | > 10000 | – | –
5 | – | – | – | ~1120 | ~2580 | ~1130 | CC(C)S(=O)(=O)c1ccccc1Nc1nc(Nc2ccc(N3CCN(C)CC3)cc2)nc2ccn(C)c12 [IID-5] | – | ~7940 | –
6 | – | – | – | 1420 | 1820 | 627 | COc1cc(N2CCC(N3CCN(C)CC3)CC2)ccc1Nc1nc(NCc2ccccc2S(=O)(=O)C(C)C)c2c(ccn2C)n1 [IIL-2] | – | 2620 | targeting selectivity (EML4-ALK-BaF3): good targeting selectivity
7 | 1190 | 1430 | 1200 | – | – | – | COC(=O)c1ccccc1Nc1nc(Nc2ccc(N3CCC(N4CCN(C)CC4)CC3)cc2OC)nc2cc[nH]c12 [IG-2] | 1800 | – | –
8 | 409 | 1210 | 286 | – | – | – | COC(=O)c1ccccc1Nc1nc(Nc2ccc(N3CCC(N4CCCC4)CC3)cc2OC)nc2cc[nH]c12 [IG-7] | ~994 | – | –
9 | 737 | 796 | 477 | – | – | – | COc1cc(N2CCN(C)CC2)ccc1Nc1nc(Nc2ccccc2S(=O)(=O)C(C)C)c2[nH]ccc2n1 [ID-1] | ~8390 | – | –
10 | 3940 | 4660 | 4270 | – | – | – | CNC(=O)c1ccccc1Nc1nc(Nc2ccc(N3CCC(N4CCN(C)CC4)CC3)cc2OC)nc2cc[nH]c12 [IJ-1] | 5010 | – | –
11 | > 10000 | > 10000 | > 10000 | – | – | – | CCNc1nc(Nc2ccc(N3CCN(C)CC3)cc2OC)nc2cc[nH]c12 [IR-1] | > 10000 | – | –
12 | ~6860 | ~4910 | 3680 | – | – | – | COc1cc(N2CCC(N3CCN(C)CC3)CC2)ccc1Nc1nc(Nc2ccccc2S(C)(=O)=O)c2[nH]ccc2n1 [IC-2] | ~8770 | – | –
13 | – | – | – | ~2960 | 2260 | 546 | COc1cc(N2CCN(C)CC2)ccc1Nc1nc(Nc2ccccc2S(=O)(=O)C(C)C)c2c(ccn2C)n1 [IID-1] | – | ~8180 | –

The next lines start with the compound.

Row | SMILES | IC50 (EML4-ALK (L1196M)-BaF3; [2]) [nM] | IC50 (NPM-ALK-BaF3; Table 11) [nM] | IC50 (EML4-ALK-BaF3; Table 11) [nM] | IC50 (EML4-ALK (L1196M)-BaF3; [3]) [nM] | IC50 (NPM-ALK-BaF3; Table 12) [nM] | IC50 (EML4-ALK-BaF3; Table 12) [nM] | IC50 (wild type BaF3; Table 11) [nM] | IC50 (wild type BaF3; Table 12) [nM] | also measured
14 | C[C@@H](Oc1cc(-c2cnn(C3CCNCC3)c2)cnc1N)c1c(Cl)ccc(F)c1Cl [Crizotinib, crizotinib, reference compound] | – | – | – | – | – | – | 1080 | 1080 | IC50 (lung cancer cells H3122): 185 nM; IC50 (lung cancer cells A549): 2400 nM
15 | CN1CCN(c2ccc(Nc3nc(NCc4ccccc4S(C)(=O)=O)c4c(ccn4C)n3)cc2)CC1 [IIK-5] | – | – | – | ~2560 | 1880 | 1430 | – | ~2870 | –
16 | COC(=O)c1ccccc1Nc1nc(Nc2ccc(N3CCC(N4CCN(C)CC4)CC3)cc2OC)nc2ccn(C)c12 [IIG-2] | – | – | – | 3730 | 4890 | ~3880 | – | ~7940 | –
17 | CSc1ccccc1Nc1nc(Nc2ccc(S(N)(=O)=O)cc2)nc2cc[nH]c12 [IA-3] | 6630 | 12900 | 2420 | – | – | – | 7710 | – | –
18 | COC(=O)c1ccccc1Nc1nc(Nc2ccc(N3CCC(O)CC3)nc2)nc2cc[nH]c12 [IG-18] | 4370 | 8760 | 4680 | – | – | – | > 10000 | – | –
19 | CSc1ccccc1Nc1nc(Nc2ccc(N3CCC(O)CC3)cc2)nc2ccn(C)c12 [IIA-3] | – | – | – | 161 | 456 | 321 | – | 376 | –
20 | COC(=O)c1cccc(Nc2nc(Nc3ccc(N4CCC(O)CC4)cc3)nc3cc[nH]c23)c1 [II-3] | 6160 | 4910 | 7470 | – | – | – | 9610 | – | –
21 | COC(=O)c1ccccc1Nc1nc(Nc2ccc(N3CCOCC3)cc2)nc2cc[nH]c12 [IG-5] | > 10000 | > 10000 | 7800 | – | – | – | > 10000 | – | –
22 | CC(C)S(=O)(=O)c1ccccc1CNc1nc(Nc2ccc(S(N)(=O)=O)cc2)nc2cc[nH]c12 [IO-4] | > 10000 | > 10000 | > 10000 | – | – | – | > 10000 | – | –
23 | CC(C)Sc1ccccc1Nc1nc(Nc2ccc(N3CCC(O)CC3)cc2)nc2cc[nH]c12 [IB-2] | 1740 | 1770 | 786 | – | – | – | 1920 | – | –
24 | CC(C)S(=O)(=O)c1ccccc1Nc1nc(Nc2ccc(S(N)(=O)=O)cc2)nc2cc[nH]c12 [ID-5] | > 10000 | > 10000 | > 10000 | – | – | – | > 10000 | – | –
25 | COc1cc(C(=O)N2CCC(N3CCN(C)CC3)CC2)ccc1Nc1nc(NCc2ccccc2S(C)(=O)=O)c2c(ccn2C)n1 [IIK-6] | – | – | – | > 10000 | > 10000 | > 10000 | – | > 10000 | –
26 | CN1CCN(c2ccc(Nc3nc(Nc4ccccc4S(C)(=O)=O)c4c(ccn4C)n3)cc2)CC1 [IIC-5] | – | – | – | 4410 | 3780 | ~3240 | – | ~7730 | –
27 | COC(=O)c1ccccc1Nc1nc(Nc2ccc(N3CCC(O)CC3)cc2)nc2ccn(C)c12 [IIG-3] | – | – | – | 2790 | 3180 | 4260 | – | 5040 | –
28 | COc1cc(C2CCN(C)CC2)c(C)cc1Nc1nc(Nc2ccccc2S(=O)(=O)C(C)C)c2c(ccn2C)n1 [IID-9] | – | – | – | ~2880 | 4740 | 2240 | – | ~8300 | –
29 | CCOc1cc(C(=O)N2CCC(N3CCN(C)CC3)CC2)ccc1Nc1nc(Nc2ccccc2S(=O)(=O)C(C)C)c2c(ccn2C)n1 [IID-7] | – | – | – | ~2780 | ~982 | 783 | – | ~2580 | –
30 | CC(C)Sc1ccccc1CNc1nc(Nc2ccc(S(N)(=O)=O)cc2)nc2cc[nH]c12 [IM-3] | > 10000 | > 10000 | 7530 | – | – | – | > 10000 | – | –
31 | COC(=O)c1ccccc1Oc1nc(Nc2ccc(N3CCC(N4CCN(C)CC4)CC3)cc2OC)nc2cc[nH]c12 [IV-2] | 3960 | ~9140 | ~8980 | – | – | – | ~8450 | – | –
32 | CC(C)Sc1ccccc1CNc1nc(Nc2ccc(N3CCC(O)CC3)cc2)nc2ccn(C)c12 [IIJ-2] | – | – | – | 1610 | 1610 | 1710 | – | ~2860 | –
33 | Cc1cc(Nc2nc(Nc3ccccc3S(=O)(=O)C(C)C)c3c(ccn3C)n2)c(OC(C)C)cc1C1CCN(C)CC1 [IID-8] | – | – | – | 4770 | ~3460 | 1760 | – | ~8380 | –
34 | CS(=O)(=O)c1ccccc1CNc1nc(Nc2ccc(N3CCC(O)CC3)cc2)nc2cc[nH]c12 [IN-3] | > 10000 | > 10000 | > 10000 | – | – | – | > 10000 | – | –
35 | CCNc1nc(Nc2ccc(N3CCC(N4CCN(C)CC4)CC3)cc2OC)nc2cc[nH]c12 [IR-2] | > 10000 | > 10000 | > 10000 | – | – | – | > 10000 | – | –
36 | CSc1ccccc1Nc1nc(Nc2ccc(S(N)(=O)=O)cc2)nc2ccn(C)c12 [IIA-4] | – | – | – | 1320 | 2700 | 1300 | – | 2570 | –
